The text below walks through data of patent US9714240B2 (PharmAkea, Inc., priority 2013, dated 2017).

This experiment has as its target T1, human autotaxin (Homo sapiens, UniProt Q13822).
T1 construct: Conditioned media is collected from confluent Hep3B cells and concentrated 20-fold; endogenous in cells; host or cells: Hep3B human hepatocellular carcinoma cells (concentrated conditioned medium)
The experiment is described as follows: Human Autotaxin Assay (choline release from LPC). It counts as biochemical. To be noted: ATX in concentrated conditioned media from Hep3B cells, substrate LPC 14:0 100 uM, absorbance at 555 nm. How it is done:
ATX activity is assayed in concentrated conditioned media from Hep3B human hepatocellular carcinoma cells by measuring the amount of choline released from the substrate, lysophosphatidylcholine (LPC) as it is cleaved to LPA. Conditioned media is collected from confluent Hep3B cells and concentrated 20-fold using Centriprep-30 filter devices (Millipore). To assay for autotaxin inhibition, 10-20 μL of the concentrated conditioned media is incubated with 2.5 μL of a test compound in DMSO and 72.5-82.5 μL lyso-PLD buffer (100 mM Tris pH 9, 500 mM NaCl, 5 mM MgCl2, 5 mM CaCl2, 0.05% Triton X-100 in the presence or absence of 0.2% fatty-acid-free human serum albumin) for 15 min at 37° C. After the 15 min incubation, 5 ul of 2 mM LPC (14:0; Avanti Polar Lipids Cat#855575C) diluted in lyso-PLD buffer is added for a final concentration of 100 uM and the incubation continues for 1.5-3 hours at 37° C. 100 μl of a color mix containing 4.5 mM 4-aminoantipyrine, 2.7 mM N-ethyl-N-(2-hydroxy-3-sulfopropyl)-m-toluidine, 21 units/ml horseradish peroxidase and 3 units/ml choline oxidase in 50 mM Tris, pH 8, 4.5 mM MgCl2 is added and the incubation continued for 15 minutes at room temperature before reading the absorbance at 555 nm.

The structures appear in SMILES notation. Bounds are passed on as bounds.

`N#C/C(=C\c1cn(Cc2ccc(F)cc2)c2c(Cl)cccc12)c1ccc(C(=O)O)cc1` [Compound 1-5, 4-[(Z)-2-[7-chloro-1-[(4-fluorophenyl)methyl]indol-3-yl]-1-cyano-vinyl]benzoic Acid]: the IC50 (as a rule, the concentration at which inhibition is half-maximal) lay within 0.5 to 10 µM.

`N#C/C(=C\c1cn(Cc2ccc(OC(F)(F)F)cc2)c2cc(Cl)ccc12)c1ccc(C(=O)O)cc1` [Compound 1-45, (Z)-4-(2-(6-chloro-1-(4-(trifluoromethoxy)benzyl)-1H-indol-3-yl)-1-cyanovinyl)benzoic Acid] yielded an IC50 of 0.5 to 10 µM.

`N#C/C(=C\c1cn(Cc2ccc(F)cc2)c2cccc(Cl)c12)c1ccc(C(=O)O)cc1` [Compound 1-2, 4-[(Z)-1-cyano-2-[4-chloro-1-[(4-fluorophenyl)methyl]indol-3-yl]vinyl]benzoic Acid] returned an IC50 of 0.5 to 10 µM.

In turn, `N#C/C(=C\c1cn(Cc2ccc(F)cc2)c2ccc(F)cc12)c1ccc(C(=O)O)cc1` [Compound 1-6, 4-[(Z)-1-cyano-2-[5-fluoro-1-[(4-fluorophenyl)methyl]indol-3-yl]vinyl]benzoic Acid] had an IC50 of 0.5 to 10 µM.

Consider `N#C/C(=C\c1cn(Cc2ccncc2)c2cc(Cl)ccc12)c1ccc(C(=O)O)cc1` [Compound 1-14, 4-[(Z)-2-[6-chloro-1-(4-pyridylmethyl)indol-3-yl]-1-cyano-vinyl]benzoic Acid], for which the IC50 is 0.5 to 10 µM.

As for `N#C/C(=C\c1cn(CCCc2ccccc2)c2cc(Cl)ccc12)c1ccc(C(=O)O)cc1` [Compound 1-24, 4-[(Z)-2-[6-chloro-1-(3-phenylpropyl)indol-3-yl]-1-cyano-vinyl]benzoic Acid], the IC50 lay within 0.5 to 10 µM.

`COc1ccc2c(/C=C(\C#N)c3ccc(C(=O)O)cc3)cn(Cc3ccc(F)cc3)c2c1` [Compound 1-10, 4-[(Z)-1-cyano-2-[1-[(4-fluorophenyl)methyl]-6-methoxy-indol-3-yl]vinyl]benzoic Acid]: the IC50 is ≤ 0.5 µM.

`N#C/C(=C\c1cn(Cc2cnc(C(F)(F)F)s2)c2c(F)c(Cl)ccc12)c1ccc(C(=O)O)cc1` [Compound 1-52]: the IC50 was ≤ 0.5 µM.

Take `N#C/C(=C\c1cn(Cc2ccc(F)cc2)c2cc(Cl)ccc12)c1ccc(CC(=O)O)cc1` [Compound 2-25, (Z)-2-(4-(2-(6-chloro-1-(4-fluorobenzyl)-1H-indol-3-yl)-1-cyanovinyl)phenyl)acetic Acid]: the IC50 was ≤ 0.5 µM.

Regarding `Cn1cc(Cn2cc(/C=C(\C#N)c3ccc(C(=O)O)cc3)c3ccc(Cl)cc32)cn1` [Compound 1-25, 4-[(Z)-2-[6-chloro-1-[(1-methylpyrazol-4-yl)methyl]indol-3-yl]-1-cyano-vinyl]benzoic Acid], the IC50 lay within 0.5 to 10 µM.

With `N#C/C(=C\c1cn(CCc2ccc(F)cc2)c2cc(Cl)ccc12)c1ccc(C(=O)O)cc1` [Compound 1-22, 4-[(Z)-2-[6-chloro-1-[2-(4-fluorophenyl)ethyl]indol-3-yl]-1-cyano-vinyl]benzoic Acid], the IC50 is > 10 µM.

`CS(=O)(=O)c1ccc2c(/C=C(\C#N)c3ccc(C(=O)O)cc3)cn(Cc3ccc(F)cc3)c2c1` [Compound 1-67, (Z)-4-(1-cyano-2-(1-(4-fluorobenzyl)-6-(methylsulfonyl)-1H-indol-3-yl)vinyl)benzoic Acid] had an IC50 of 0.5 to 10 µM.

As for `N#C/C(=C\c1cn(Cc2cnc(C(F)(F)F)s2)c2cc(OC(F)(F)F)ccc12)c1ccc(C(=O)O)cc1` [Compound 1-77, (Z)-4-(1-cyano-2-(6-(trifluoromethoxy)-1-((2-(trifluoromethyl)thiazol-5-yl)methyl)-1H-indol-3-yl)vinyl)benzoic Acid], the IC50 is ≤ 0.5 µM.
